Values after ≈ are worked out from the molar mass of the structure shown. Read-outs that look alike come from different tables or passages of the source.
Columns and labels:
[1] = system: platelet aggregation (rat platelet-rich-plasma); assay: Test of Platelet Aggregation Inhibition (in vitro), rat PRP; type: cell-based, Wistar Imamichi rat; conditions: for IC50: Platelet, in vitro, rat blood
Description: (§1) The test was performed as follows in accordance with the method of Ashida et al, Thrombosis and Haemostasis, Vol. 40, 542 (1979).
(§2) Blood was taken by puncture from the heart of a Wistar Imamichi rat under anesthesia with pentobarbital into a syringe containing 1/10 volume of a 3.13% aqueous solution of sodium citrate dihydrate, and the citrated blood was centrifuged to obtain a platelet-rich-plasma (PRP). In the same manner, citrated blood was collected from the vein of a healthy human who had not taken aspirin or any other anti-inflammatory agent since before 10 days, followed by centrifugation to obtain PRP. 5 μl of each test compound was added to 0.445 ml of each of these PRP samples, and the system was warmed at 30° C. for 1 minute. 50 μl of an aggregation inducer (ADP or collagen) was then added thereto, and platelet aggregation was determined according to the method of Born, Nature, Vol. 194, 927 (1962).

[2] = system: platelet aggregation (human platelet-rich-plasma); assay: Test of Platelet Aggregation Inhibition (in vitro), human PRP; type: cell-based; conditions: human blood, ADP-induced
Description: as §1, §2

platelet aggregation [3] = assay: Test of Platelet Aggregation Inhibition (ex vivo, p.o.); type: in vivo, Wistar Imamichi rat; conditions: for inhibition at 10 mg/kg: Platelet, po, ex vivo, rat, 10 mg/Kg p.o., 1 hour, *P<0.05, **P<0.01, ***P<0.001
Description: One hour later, citrated blood was taken from the heart, and platelet aggregation was determined in the same manner as described in the in vitro test. The inhibitory activity was compared with that of control and expressed in terms of percent inhibition.

circulatory system = assay: Test of Influence on Circulatory System (blood pressure, heart beats); type: in vivo, SLC-Wistar rat; conditions: rat, 50 mg/Kg p.o.
Description: 5 or 6 male normal SLC-Wistar rats per group (body weight: 205-255 g) orally received 50 mg/Kg of the test compound, and the blood pressure (tail cuff method) and the heart beats were measured with the passage of time in order to elucidate influences of the test compound on the circulatory system.

human platelet PDE I = human platelet PDE I (Homo sapiens, UniProt O76074); assay: Inhibitory activity on phosphodiesterase, platelet PDE I (cGMP); type: biochemical; conditions: cGMP substrate
Description: (§3) Phosphodiesterase fractions were separated from 105,000×g of supernatant fractions from human platelets and heart by DEAE-cellulose column chromatography using the method of Timothy et al. (Arch. Biochem. Biophy. 196, 465-474, 1979) with minor modifications. These fractions were designated PDE I, PDE II and PDE III, depending upon the order of their emergence from the DEAE-cellulose column.
(§4) Phosphodiesterase activity was measured by the method of Thompson and Appleman (Biochemistry 10, 311-316, 1971) with slight modifications. The reaction mixture consisted of 25 mM of Tris-HCl (pH 7.4), 5 mM of MgCl2, 1 μM of [^3 H]-cAMP or cGMP (approximate 20,000 cpm), various concentrations of a test compound and the enzyme preparation. After incubation for 10 minutes at 30° C., the reaction was terminated by boiling the reaction mixture for 45 seconds. 5'-[^3 H]-AMP or GMP formed by phosphodiesterase was converted to [^3 H]adenosine or [^3 H]quanosine by snake venom (Botherop Atrox) containing 5'-nucleotidase and the product isolated by a cation exchange resin was counted in a liquid scintillation counter.

human platelet PDE II = assay: Inhibitory activity on phosphodiesterase, platelet PDE II (cGMP); type: biochemical; conditions: cGMP substrate
Description: as §3, §4

human heart PDE I = assay: Inhibitory activity on phosphodiesterase, heart PDE I (cGMP); type: biochemical; conditions: cGMP substrate
Description: as §3, §4

human heart PDE III = assay: Inhibitory activity on phosphodiesterase, heart PDE III (cAMP); type: biochemical; conditions: for IC50: cAMP substrate
Description: as §3, §4

[4] = Solubility Test (water-solubility)
[5] = system: platelet aggregation induced by B16 melanoma cells; assay: Inhibition on Platelet Aggregation Induced by Cancer Cells (in vitro), B16; type: cell-based, C57BL/6 mouse; set-up: key: +: Aggregation was observed.; ±: Aggregation was partially inhibited.; -: No aggregation was observed
Description: (§5) It is known nowadays that platelet aggregation plays an important role in metastasis of cancers. […] Tanaka et al. The effect of the compounds of this invention to inhibit the above-described cancer cell-induced platelet aggregation was tested as follows. Cell suspensions of B16 or 3LL were prepared according to the method of Tanaka et al, Invarsion and Metastasis, Vol. 2, 289 (1982). […] Platelet aggregation of the sample system was determined according to the method of Born, and the platelet aggregation inhibitory activity was expressed by the following scale: […]

[6] = system: platelet aggregation induced by Lewis lung cancer (3LL) cells; assay: Inhibition on Platelet Aggregation Induced by Cancer Cells (in vitro), 3LL; type: cell-based, C57BL/6 mouse; set-up: key: +: Aggregation was observed.; ±: Aggregation was partially inhibited.; -: No aggregation was observed
Description: as §5

human platelet PDE III = human platelet PDE III (Homo sapiens, UniProt Q14432); assay: biochemical; conditions: for IC50: cAMP substrate
Description: as §3, §4

platelet aggregation [7] = assay: Test of Platelet Aggregation Inhibition (ex vivo; i.v.); type: in vivo, Wistar Imamichi rat; conditions: iv, 0.25 h, rat, i.v. 67 μg/Kg/min, 15 min
Description: As test animals, 5 to 6 Wistar Imamichi rats (body weight: about 260 g) that had been allowed food and water ad libitum were used per group. The test compound was dissolved in a physiological saline solution and continuously injected over a period of 10 or 15 minutes to the rats under anesthesia with pentobarbital through the femoral vein. Immediately after completion of the administration, citrated blood was collected from the heart, and platelet aggregation was determined in the same manner as in the test in vitro in Test Example 2.

[8] = ADP-induced, read-out: IC50, platelet aggregation inhibition in vitro, ADP
[9] = collagen-induced, read-out: IC50, platelet aggregation inhibition in vitro, Collagen
[10] = ADP, read-out: ex vivo % inhibition of platelet aggregation, ADP
[11] = collagen, read-out: ex vivo % inhibition of platelet aggregation, Collagen

Chain of human platelet PDE III (Q14432 whole entry): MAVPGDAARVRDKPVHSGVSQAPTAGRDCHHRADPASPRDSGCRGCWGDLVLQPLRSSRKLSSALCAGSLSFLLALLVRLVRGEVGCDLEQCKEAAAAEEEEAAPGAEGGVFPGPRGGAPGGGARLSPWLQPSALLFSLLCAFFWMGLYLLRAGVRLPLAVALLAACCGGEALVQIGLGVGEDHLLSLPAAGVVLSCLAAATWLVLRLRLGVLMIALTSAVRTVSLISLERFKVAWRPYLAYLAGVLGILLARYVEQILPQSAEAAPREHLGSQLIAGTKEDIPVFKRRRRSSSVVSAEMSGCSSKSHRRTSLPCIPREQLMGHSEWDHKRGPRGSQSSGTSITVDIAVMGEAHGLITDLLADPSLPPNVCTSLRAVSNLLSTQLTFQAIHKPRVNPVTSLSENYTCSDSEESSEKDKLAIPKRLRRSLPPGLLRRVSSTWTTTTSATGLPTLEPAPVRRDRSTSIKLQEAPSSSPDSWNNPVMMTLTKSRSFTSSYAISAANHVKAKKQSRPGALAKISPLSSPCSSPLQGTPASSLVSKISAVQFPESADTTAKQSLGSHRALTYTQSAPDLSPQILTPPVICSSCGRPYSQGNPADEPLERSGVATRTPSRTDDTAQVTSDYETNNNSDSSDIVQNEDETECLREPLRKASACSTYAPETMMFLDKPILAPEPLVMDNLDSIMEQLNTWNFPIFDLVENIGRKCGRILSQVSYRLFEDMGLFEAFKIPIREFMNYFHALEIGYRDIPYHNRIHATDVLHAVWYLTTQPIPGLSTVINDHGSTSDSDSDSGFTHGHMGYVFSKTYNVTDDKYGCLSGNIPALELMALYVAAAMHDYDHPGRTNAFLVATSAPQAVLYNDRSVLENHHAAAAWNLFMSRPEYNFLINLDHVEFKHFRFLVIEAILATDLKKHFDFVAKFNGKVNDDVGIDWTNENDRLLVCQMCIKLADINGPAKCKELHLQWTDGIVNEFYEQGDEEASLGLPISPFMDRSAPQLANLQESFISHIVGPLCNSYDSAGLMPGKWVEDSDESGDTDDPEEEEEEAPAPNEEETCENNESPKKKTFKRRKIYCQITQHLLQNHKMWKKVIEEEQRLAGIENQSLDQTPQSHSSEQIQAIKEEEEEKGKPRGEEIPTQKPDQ

| SMILES | IC50 [1, 8] [µM] | IC50 [1, 9] [µM] | IC50 [2] [µM] | inhibition at 10 mg/kg (platelet aggregation [3]; [10]) [%] | inhibition at 10 mg/kg (platelet aggregation [3]; [11]) [%] | Increase in Heart Beat (circulatory system; 1 hr, **P<0.01) [%] | Reduction in Blood Pressure (circulatory system; 1 hr, *P<0.05, **P<0.01) [%] | Increase in Heart Beat (circulatory system; 2 hr, **P<0.01) [%] | Reduction in Blood Pressure (circulatory system; 2 hr, *P<0.05, **P<0.01) [%] | Increase in Heart Beat (circulatory system; 3 hr, **P<0.01) [%] | Reduction in Blood Pressure (circulatory system; 3 hr, **P<0.01) [%] | Increase in Heart Beat (circulatory system; 5 hr, **P<0.01) [%] | Reduction in Blood Pressure (circulatory system; 5 hr, **P<0.01) [%] | Increase in Heart Beat (circulatory system; 6 hr, *P<0.05, **P<0.01) [%] | Reduction in Blood Pressure (circulatory system; 6 hr, *P<0.05, **P<0.01) [%] | IC50 (human platelet PDE I) [µM] | IC50 (human platelet PDE II) [µM] | IC50 (human heart PDE I) [µM] | IC50 (human heart PDE III) [µM] | solubility ([4]; tap water, pH 2) [µg/mL] | also measured |
| --- | --- | --- | --- | --- | --- | --- | --- | --- | --- | --- | --- | --- | --- | --- | --- | --- | --- | --- | --- | --- | --- |
| O=C1CN2Cc3c(ccc(Cl)c3Cl)N=C2N1 [BL-4162, 6,7-dichloro-1,2,3,5-tetrahydro[2,1-b]quinazolin-2-one] | 0.8 | 0.02 | 1.2 | 8 | 53 | 28 | 11 | 37 | 16 | 31 | 17 | 31 | 14 | 31 | 13 | 3.9 | 3.3 | > 10 | 0.096 | < 10 | aggregation inhibitory activity in ADP- or collagen-induced aggregation (in words) (platelet aggregation [3]; orally administered, Table 2): widely varied depending on the individual animal and, therefore, cannot be regarded significant; Increase in Heart Beat (circulatory system; 4 hr, **P<0.01): 37%; Reduction in Blood Pressure (circulatory system; 4 hr, **P<0.01): 14%; solubility ([4]; water, pH 4, water): < 10 µg/mL |
| Cl.Cl.O.O=C1CN2Cc3cc(N4CCCCC4)c(Cl)cc3N=C2N1 [Example 16, 8-Chloro-7-piperidino-1,2,3,5-tetrahydroimidazo[2,1-b] quinazolin-2-one dihydrochloride monohydrate] | 0.4 | 0.46 | 12.5 | 34 | 76 |  |  |  |  |  |  |  |  |  |  | 30 | > 30 | > 10 | 0.095 |  | Inhibition on platelet aggregation induced by B16 ([5]; sample concn. 0.3 μM): ±; Inhibition on platelet aggregation induced by B16 ([5]; sample concn. 1 μM): -; Inhibition on platelet aggregation induced by 3LL ([6]; sample concn. 1 μM): +; Inhibition on platelet aggregation induced by 3LL ([6]; sample concn. 3 μM): -; Inhibition on platelet aggregation induced by 3LL ([6]; sample concn. 10 μM): -; IC50 Ratio (PDE II) Heart/Platelet (human platelet PDE III): 11.6; selectivity to platelet PDE (in words) (human platelet PDE III; Table 6): high selectivity to platelet PDE; IC50 (human platelet PDE III): 0.0082 µM; water-solubility (in words) [4]: low water-solubility |
| CN(C)c1ccc2c(c1)CN1CC(=O)NC1=N2 [Example 21, 7-dimethylamino-1,2,3,5-tetrahydroimidazo[2,1-b]quinazolin-2-one] | 5.4 | 1.4 | 7.2 | 29 | 48 | 19 | 1.0 | 22 | 5.0 | 20 | 5.0 | 23 | 5.0 | 15 | 1.0 | 70 | 57 | > 100 | 1.4 | > 100000 | platelet aggregation inhibitory activity (in words) [1]: strong platelet aggregation inhibitory activity; inhibition at 0.067 mg/kg (platelet aggregation [7]; ADP, *P<0.05, read-out: Percent Inhibition of platelet aggregation, ADP): 23%; inhibition at 0.067 mg/kg (platelet aggregation [7]; collagen, *P<0.05, read-out: Percent Inhibition of platelet aggregation, Collagen): 71%; IC50 Ratio (PDE II) Heart/Platelet (human platelet PDE III; Heart/Platelet): 1.1; IC50 (human platelet PDE III): 1.3 µM; activity on heart PDE (in words) (human heart PDE III; Table 6): strong activity on heart PDE; water-solubility (in words) [4]: water-soluble; solubility ([4]; water, pH 4, water): 180 µg/mL (≈ 782 µM) |
